According to ChEMBL document CHEMBL1201862, “PubChem BioAssay data set” (2004):
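Exposure lasted 48 hours, with cells grown in 96-well plates and compounds tested at five concentrations. Here, GI50 denotes the concentration required for 50% inhibition of growth.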 Activity calls are given as the source filed them. Cut-off read from the data, not from the text of the source: active = GI50 up to about 1.1 µM and inactive = higher.

Experiments:
Experiment in all cases: NCI-60 cell line screen, 48 h
[1] = system: OVCAR-3
[2] = system: SK-MEL-5
[3] = system: MOLT-4
[4] = system: SF-539
[5] = system: BT-549
[6] = system: HL-60
[7] = system: K562
[8] = system: NCI-H226
[9] = system: CAKI-1
[10] = system: UO-31
[11] = system: MDA-MB-435
[12] = system: A549
[13] = system: KM12
[14] = system: U-251
[15] = system: SR
[16] = system: SK-OV-3
[17] = system: TK-10
[18] = system: HOP-92
[19] = system: LOX IMVI
[20] = system: RPMI-8226

Measured: GI50

O=C(O)c1cc(-c2ccc3cc(O)c(O)cc3c2)ccc1O
inactive: [1] > 12.5 µM | [2] > 12.5 µM | [3] > 12.5 µM | [4] > 12.5 µM | [5] > 12.5 µM | [6] > 12.5 µM | [7] > 12.5 µM | [8] > 12.5 µM | [9] > 12.5 µM | [10] > 12.5 µM | [11] 5.73 µM | [12] > 12.5 µM | [13] > 12.5 µM | [14] > 12.5 µM | [15] > 12.5 µM | [16] > 12.5 µM | [17] > 12.5 µM

COc1ccc(/N=N/C(=O)NC(CC(C)C)C(=O)NC(CC(C)C)C(=O)O)cc1 (stereo not given)
inactive: [18] > 100 µM | [1] > 100 µM | [2] 18.1 µM | [3] 41.6 µM | [4] 4.81 µM | [5] > 100 µM | [6] 17.5 µM | [7] 8.45 µM | [8] > 100 µM | [9] > 100 µM | [10] 24.8 µM | [11] 34.5 µM | [12] 38.9 µM | [19] > 100 µM | [13] 43.8 µM | [14] > 100 µM | [20] > 100 µM | [17] > 100 µM

O=C(CC(=O)N1N=C(N2c3ccccc3Sc3ccccc32)CC1c1ccccc1)Nc1ccccc1Cl (stereo not given)
inactive: [18] > 100 µM | [1] > 100 µM | [2] > 100 µM | [3] > 100 µM | [4] > 100 µM | [5] > 100 µM | [6] > 100 µM | [7] > 100 µM | [8] > 100 µM | [9] > 100 µM | [10] > 100 µM | [11] > 100 µM | [12] > 100 µM | [13] > 100 µM | [14] > 100 µM | [20] > 100 µM | [17] > 100 µM

Cc1nn(C(=O)Cc2ccccc2)c2c1C(c1ccccc1)SC(=N)N2 (stereo not given)
inactive: [2] > 100 µM | [3] > 100 µM | [4] > 100 µM | [5] > 100 µM | [6] > 100 µM | [7] > 100 µM | [8] > 100 µM | [9] > 100 µM | [10] > 100 µM | [11] > 100 µM | [12] > 100 µM | [19] > 100 µM | [13] > 100 µM | [15] > 100 µM | [20] > 100 µM | [16] > 100 µM | [17] > 100 µM

COC(=O)/C(=N\NC(=S)NN)C(C(=O)OC)C(=O)C(=O)Nc1cccc(C(F)(F)F)c1 (stereo not given)
inactive: [18] > 100 µM | [1] > 100 µM | [2] > 100 µM | [4] > 100 µM | [5] > 100 µM | [6] > 100 µM | [8] > 100 µM | [9] > 100 µM | [10] > 100 µM | [11] > 100 µM | [12] > 100 µM | [19] > 100 µM | [13] > 100 µM | [14] > 100 µM | [20] > 100 µM | [16] > 100 µM | [17] > 100 µM

N#Cc1c2c([nH]c(=O)c1C#N)CCCC2
inactive: [18] 79.1 µM | [1] > 100 µM | [2] > 100 µM | [3] > 100 µM | [4] > 100 µM | [5] > 100 µM | [6] > 100 µM | [7] > 100 µM | [8] > 100 µM | [9] > 100 µM | [10] > 100 µM | [11] > 100 µM | [12] > 100 µM | [19] > 100 µM | [13] > 100 µM | [14] > 100 µM | [16] > 100 µM | [17] > 100 µM

COc1nc2c(c(=O)n1C)N=C(c1ccc(Cl)cc1)CC(c1ccccc1)N2 (stereo not given)
inactive: [18] 42.8 µM | [1] 35.1 µM | [2] 19.5 µM | [3] 17.6 µM | [4] 17.7 µM | [5] 27.4 µM | [7] 6.78 µM | [8] 16.1 µM | [9] 26.9 µM | [10] 33.5 µM | [11] 39 µM | [12] 36.5 µM | [19] 21.2 µM | [13] 16.7 µM | [14] 35.1 µM | [15] 23.7 µM | [20] 24 µM | [16] 41.5 µM

C/C(CC(O)(C(F)(F)F)C(F)(F)F)=N\N
inactive: [18] > 10 µM | [1] > 10 µM | [2] > 10 µM | [3] > 10 µM | [4] > 10 µM | [5] > 10 µM | [6] > 10 µM | [7] > 10 µM | [8] > 10 µM | [9] > 10 µM | [11] > 10 µM | [12] > 10 µM | [19] > 10 µM | [13] > 10 µM | [14] > 10 µM | [20] > 10 µM | [16] > 10 µM | [17] > 10 µM
